{"source": "paper PMC7235792", "about": "“Effect of the Most Relevant CYP3A4 and CYP3A5 Polymorphisms on the Pharmacokinetic Parameters of 10 CYP3A Substrates” (Biomedicines, 2020)", "key": {"[1]": {"conditions": "CYP3A5 *1/*1 subjects compared to *1/*3 and *3/*3; population PK model; cited from earlier work"}, "[2]": {"conditions": "human, in vivo"}}, "data": [{"smiles": "OCCOCCN1CCN(C2=Nc3ccccc3Sc3ccccc32)CC1", "note": "[quetiapine]", "values": [{"measurement": "increased Cl", "setting": "[1]", "result": 29, "unit": "%"}]}, {"smiles": "Cc1cc2c(s1)Nc1ccccc1N=C2N1CCN(C)CC1", "note": "[olanzapine]", "values": [{"measurement": "association of CYP3A polymorphisms with PK parameters", "setting": "[2]", "result": "no significant association"}]}, {"smiles": "CCOC(=O)C1=C(COCCN)NC(C)=C(C(=O)OC)C1c1ccccc1Cl", "note": "(centres unmarked) [amlodipine]", "values": [{"measurement": "AUC in CYP3A5 PM", "setting": "[2]", "result": "higher AUC"}]}, {"smiles": "O=C1CCc2ccc(OCCCCN3CCN(c4cccc(Cl)c4Cl)CC3)cc2N1", "note": "[aripiprazole]", "values": [{"measurement": "association of CYP3A polymorphisms with PK parameters", "setting": "[2]", "result": "no significant association"}]}, {"smiles": "COC(c1ccccc1)(c1ccccc1)[C@H](Oc1nc(C)cc(C)n1)C(=O)O", "note": "[ambrisentan]", "values": [{"measurement": "association of CYP3A polymorphisms with PK parameters", "setting": "[2]", "result": "no significant association"}, {"measurement": "influence of CYP3A4 or CYP3A5 polymorphisms on elimination", "setting": "[2]", "result": "it does not appear that CYP3A4 or CYP3A5 polymorphisms influence its elimination"}]}, {"smiles": "CC(C)C(=O)Oc1ccc(CO)cc1[C@H](CCN(C(C)C)C(C)C)c1ccccc1", "note": "[fesoterodine]", "values": [{"measurement": "AUC in CYP3A4 mutated alleles carriers (tendency)", "setting": "[2]", "result": "lower AUC"}, {"measurement": "Cl in CYP3A4 mutated alleles carriers (tendency)", "setting": "[2]", "result": "higher Cl"}]}]}
